Results from PMC9369610, “Pro-Apoptotic and Pro-Autophagic Properties of Cardenolides from Aerial Parts of Pergularia tomentosa” (Molecules, 2022).

Tests used:
HepG2 cells = test: TUNEL assay; type: cell-based, human; conditions: HepG2, 1 μM, 24 h
Description: Microscopic evaluation of apoptosis was performed by a TUNEL assay, using a commercial kit (Fragment End Labelling (FragEL™), […]) DNA Fragmentation Detection Kit, Sigma-Aldrich, Milan, Italy) according to the manufacturer-provided protocol, with some modifications. Briefly, cells were seeded on glass cover slips placed in 24-well plates at a density of 3.5 × 10^3/cm^2 and, after 48 h, they were treated with 1 μΜ of each compound for a further 24 h. Cells were fixed in 3% paraformaldehyde for 10 min, permeabilised in 0.2% Triton X-100 for 5 min and treated with HCl 1.5 N for 8 min. Finally, cover slips were equilibrated in equilibration buffer (10 min) and incubated with label mix containing the TdT enzyme for 1 h at 37 °C, then mounted with mounting media. Microscope observations were performed by the AxioSkop 40 fluorescent microscope. Images were acquired with Axiocam MRc5 (Carl Zeiss MicroImaging, Inc., Jena, Germany).

[1] = system: HepG2, Caco-2, MRC5 and HUVEC cells; test: MTT assay, comparison of cytotoxic effects at 1 μM on four cell types; type: cell-based, human; conditions: 24 h, Caco-2, HepG2, MRC5, HUVEC
From the text: We focused attention on 12β,6′-dihydroxycalotropin (1), 16α-hydroxycalotropin (2), 12β-hydroxycalactin (3), calotropin (4), and calactin (5), among those described by Hosseini et al., and tested their cytotoxic activity by a 3-(4,5-dime-thylthiazol-2-yl)-2,5-diphenylte-tetrazolium bromide (MTT) assay on two cancer cell lines (HepG2 and Caco-2), not previously employed, on an immortalised nontumoral cell line (MRC5) and normal primary cells (HUVEC).
Figure 2 Comparison of cytotoxic effects of P. tomentosa compounds on cancer cell lines (Caco-2 and HepG2), on an immortalised cell line (MRC5) and normal cells (HUVEC). Cells were treated for 24 h with 1 μM of each compound. Residual viability was measured by the MTT assay. Values are the means ± standard error (SE) of three independent experiments performed in triplicate. Statistical analysis was performed using the Student’s t-test. * p < 0.05 and ** p < 0.01 vs. cells treated with the vehicle (DMSO).
The human liver hepatocellular carcinoma cell line, HepG2, and the human adenocarcinoma of colon cell line, Caco-2, were cultured in Eagle’s Minimum Essential medium supplemented with 1% (v/v) non-essential amino acids, 0.2 mM L-glutamine, 50 units/mL penicillin, 50 μg/mL streptomycin and 10% (v/v) or 20% (v/v) fetal bovine serum (Sigma Aldrich, Milan, Italy) for HepG2 or Caco-2, respectively. The human embryonal lung fibroblast cell line, MRC5, was cultured in Dulbecco’s Modified Eagle medium (Sigma Aldrich, Milan, Italy) supplemented with 10% (v/v) fetal bovine serum, 0.2 mM L-glutamine, 50 units/mL penicillin and 50 μg/mL streptomycin. HUVEC cells were cultured in endothelial growth medium-2, supplemented with fetal bovine serum (2%), VEGF (0.1%), rH FGF-B (0.4%), rH EGF (0.1%), GA-1000 (0.1%), hydrocortisone (0.04%), R3-IGF-1 (0.1%), heparin (0.1%) and ascorbic acid (0.1%). Cells were maintained at 37 °C in a 5% CO2, 95% air-humidified atmosphere and passaged twice a week. Cell lines were obtained from Interlab Cell Line Collection, Istituto Nazionale per la Ricerca sul Cancro, Genoa, Italy. HUVEC were obtained from Lonza (Milan, Italy).
An MTT assay was used to analyse cell viability. Cells were seeded in 96 wells at the density of 2 × 10^4/cm^2 and, after 24 h, they were treated with P. tomentosa compounds or with the vehicle (DMSO). After a further 24 h of treatment, 0.5 mg/mL of MTT was added to the cell medium and incubated for 1.5 h at 37 °C. The resulting formazan crystals were dissolved in 100 μL of DMSO and absorbances were measured at 595 nm and 655 nm. The background signals at 655 nm were subtracted from 595 nm signals, and data were expressed as a percent of cell viability. The concentration of each compound that is required for 50% inhibition in vitro (IC50) was calculated as described in Husseini et al.. IC50 values were obtained for Caco-2, HepG2 and MRC5 cells by performing MTT assays with concentrations ranging from 0.01 μg/mL to 5 μg/mL.

C[C@@H]1C[C@@H](O)[C@]2(O)O[C@@H]3C[C@@]4(C=O)[C@@H](CC[C@@H]5[C@@H]4CC[C@]4(C)[C@@H](C6=CC(=O)OC6)CC[C@]54O)C[C@H]3O[C@@H]2O1 [Compound 5, calactin]
apoptotic nuclei (TUNEL) (HepG2 cells): occurrence of apoptotic nuclei | relative cytotoxicity (residual viability, MTT) [1]: most cytotoxic
